The source of these data is patent US20090147264A1, “LABEL-FREE, REAL-TIME DETECTION SYSTEM FOR MOLECULAR INTERACTION ANALYSIS” (The University of Pittsburgh - Of the Commonwealth System …, priority 2007, published 2009).

In data set [1] the target is T1, HMGB1 (Homo sapiens, UniProt P09429).
T1 sequence (P09429 1-215): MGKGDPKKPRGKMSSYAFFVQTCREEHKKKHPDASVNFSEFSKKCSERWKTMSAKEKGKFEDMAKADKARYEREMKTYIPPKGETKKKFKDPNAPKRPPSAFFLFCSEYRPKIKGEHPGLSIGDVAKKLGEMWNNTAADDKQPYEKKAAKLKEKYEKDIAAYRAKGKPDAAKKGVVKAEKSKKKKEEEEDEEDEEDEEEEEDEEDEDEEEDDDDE
Put plainly: Biolayer interferometry (BLI) binding of DNA to HMGB1 coupled to a biolayer sensor. The conditions noted are these: for effect of addition of platinum compound on DNA binding / affinity of DNA to HMGB1: platinum compound added to DNA; for pKd: HMGB1 amide-coupled to biolayer sensor, + CP = with cisplatin, read-out: Affinity to HMGB1. In general terms: In BLI a coated tip is dipped into the sample, and binding shifts an interference pattern.

In another data set the target is RAGE (Homo sapiens, UniProt Q15109). In words: BLI binding of sRAGE to HMGB1 in the presence of DNA. The conditions noted are these: for pKd: sRAGE binding to HMGB1 in the presence of the DNA, + CP = with cisplatin, read-out: Affinity to RAGE.
Chain of RAGE (Q15109 23-342 limits assumed, one chain of several): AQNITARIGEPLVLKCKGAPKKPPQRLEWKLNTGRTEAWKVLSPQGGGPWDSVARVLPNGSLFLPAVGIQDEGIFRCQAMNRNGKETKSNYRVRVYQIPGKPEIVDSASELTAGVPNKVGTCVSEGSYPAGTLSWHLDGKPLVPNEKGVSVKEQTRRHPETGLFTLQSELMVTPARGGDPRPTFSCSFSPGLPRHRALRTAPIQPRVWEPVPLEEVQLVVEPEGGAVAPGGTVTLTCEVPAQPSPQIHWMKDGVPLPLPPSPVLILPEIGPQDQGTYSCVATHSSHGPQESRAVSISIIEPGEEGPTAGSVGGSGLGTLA
Data set [2] has as its target HMGB1 (Homo sapiens?) (UniProt P09429). In words: BLI. Conditions: given as affinity, unit not stated (M assumed).

pKd: −log10 of the molar value.

For the molecule `N.N.O=C([O-])C1(C(=O)[O-])CCC1.[Pt+2]` [carboplatinum, carboplatin], on HMGB1 [1], the “effect of addition of platinum compound on DNA binding / affinity of DNA to HMGB1” value is “enhanced DNA binding”. In the case of “5′-cTC CGA CGc tCA aTG cTG GTA CGG Tat CCG TgT TAG-3′ (CTCCGACGCTCAATGCTGGTACGGTATCCGTGTTAG; chemistry not given here) [Scrambled 1, scrambled hairpin oligonucleotide used as a control]”, the results for the pKd with HMGB1 [1] and with RAGE were 7.29 and 8.06, respectively.

For Linear DNA, the pKd in the data set with HMGB1 [2] is 10.85. Regarding “5′-GTA cGA agT CCG TTC cTa GGC tTG ct-3′ (5'-GTA cGA agT CCG TTC cTa GGC tTG ct-3'; as printed in the source, key not given here) [Scrambled 2, scrambled hairpin oligonucleotide used as a control]”, the figures for the pKd in the data set with HMGB1 [1] and with RAGE were 6.74 and 8.41, respectively.

As for “5′-CTGGACCTTCC*T*T*T*T*GGAAGGTCC*A*G [Oligo 2]”, the pKd was 7.48 at HMGB1 [1] and 8.37 at RAGE. Turning to “5′-CCTCTCTGGACCTTCC*T*T*T*T*GGAAGGTCCAGAGA*G*G [Oligo 1]”, the pKd at HMGB1 [1] is 8.18; on RAGE, 8.06.

For the molecule `O=C1[O][Pt]2([NH][C@@H]3CCCC[C@H]3[NH]2)[O]C1=O` [oxaliplatin], at HMGB1 [1], the “effect of addition of platinum compound on DNA binding / affinity of DNA to HMGB1” value is given as “enhanced DNA binding”.

Circular DNA showed a pKd in the data set with HMGB1 [2] (p52 says circular DNA not measured well) of 8.44. As for `N.N.[Cl][Pt][Cl]` [cisplatin], the entries for the “effect of addition of platinum compound on DNA binding / affinity of DNA to HMGB1” value on HMGB1 [1] and at HMGB1 [1] (listed as cis-platinum) were “increases the affinity” and “enhanced DNA binding”, respectively. For the same molecule, on RAGE (in the presence of cisplatin), the “effect of cisplatin on affinity between sRAGE and HMGB1” value is reported as “No increased affinity”.
